Data as given in US10377902B2, “Crystallized red pigment, method of producing a recrystallized red pigment and a method for improving the appearance of or preventing wrinkles” (priority 2013, dated 2019).
Converted amounts (≈) assume the structure as drawn. “Also recorded” adds a separate entry of the source. Marks after values point to notes of the source that are not given here.

Experiments:
[1] = system: HUVEC (human umbilical vein endothelial cells); experiment: Cell proliferation, VEGF-Induced (307900), antagonist mode; assay type: cell-based; conditions: concurrent batch 305353, antagonist, read-out: Concurrent IC50/EC50
Experimental: Measurement of proliferation inhibition activity of VEGF-Induced cell of vascular endothelial cells by purified red pigment from Saw palmetto.
The final concentration in the test was given as 100 μg/mL and 10 μg/mL.
HUVEC cells were incubated in air atmosphere of 5% CO2 at 37° C. The culture medium used was Endothelial Cell Growth Medium with 10% fetal bovine serum (FBS). The medium for assay was
M199 medium supplemented with 10% FBS and 10 μg/mL of Heparin.
Aliquots of HUVEC (1.1×10^5 cells/ well) were pre-seeded in the 96-well TC plate in an incubator at 5% CO2, 37° C. Test compound solution or vehicle (DMSO) was then added per well and incubated at 5% CO2, 37° C. for 20 minutes. Thereafter, VEGF165 (0.2 nM) was added and incubated for 48 hours. 48 hours later, the cells were washed with HBSS once. Then 5 μg/mL of the fluorescence reagent, CalceinAM dye (BD Biosciences, USA) was added and incubated for another 50 minutes. After incubation, fluorescence intensity was detected by Micro plate reader. More than 50% of suppression for VEGF165 induced proliferation was indicated for the significant antagonistic activity of the test reagent.

[2] = system: Human umbilical vein endothelial cells (HUVEC); experiment: Angiogenesis, Tube Formation (Assay#368000): HUVEC tube network on Matrigel; assay type: cell-based
Experimental: Following biological test results were conducted by Ricerca Bioscience, LLC (http://www.Ricerca.com.) under a contract (Assay#368000, Tumor, Angiogenesis, Tube Formation) with the crystalized red pigment prepared in Example 1.
Human umbilical vein endothelial cells (HUVEC) differentiate to capillary-like structures and form vessel network on Matrigel in the presence of endothelial cell growth supplements. The anti-angiogenic activity of a test compound can be assessed by observing continuity of vessel network compared with untreated control. Test compound (crystallized red pigment prepared in […]) was tested for an effect on anti-angiogenesis at five final concentrations of 100, 10, 1, 0.1 and 0.01 μg/mL.
The crystalized red pigment prepared in Example 1 was dissolved in 100% dimethyl sulfoxide (DMSO) and then diluted with sterile distilled water to obtain solutions of […] in 40% DMSO. The solutions were diluted 100-fold with culture medium to generate final concentrations of 0.01, 0.1, 1, 10 and 100 μg/mL.
HUVEC was purchased from American Type Culture Collection (ATCC CRL-1730). HUVEC cells were incubated in 5% CO2 atmosphere of at 37° C. The culture medium used was Endothelial Cell Growth Medium supplemented with 10v/v % fetal bovine serum and 1% antifungal antibiotic.
Matrigel matrix was thawed, kept on ice at 4° C. and 50μL of the matrix was transferred to each well of a 96-microwell culture plate. The plate was incubated at 37° C. for at least one hour to allow the matrix solution to solidify before treatment.
Aliquots of […] of HUVEC suspension (about 1.5×10^4 cells/well) were placed in the 96-well matrigel plate. Two microliters per well of test compound solution or vehicle (40% DMSO) was then added and incubated at 5% CO2, 37° C. for 18 hours (in duplicate). The final concentration of DMSO was 0.4%. The test compound was evaluated at concentrations of 100, 10, 1, 0.1 and 0.01 μg/mL. At the end of incubation, a tube network formed by endothelial cell in each wells was evaluated by photomicroscopy (magnification of 40×) and photographed. The total length of tube network was measured from each photograph (FIG. 1).
The reduction of the total length of tube network in test compound treatment to the total length of tube network in vehicle treatment control indicates anti-angiogenic activity. The minimum inhibitory concentration (MIC) and 50% inhibition concentration (IC50) were determined to assess effect of the test substance on anti-angiogenesis.

HuVEC cells = experiment: Cytotoxicity / growth of vascular endothelial cells; assay type: cell-based, human; conditions: a few hundred micro mole level
Excerpt: The growth activity of cells under exposure to NYG-1 was detected by using HuVEC cells which is an in vitro cell model. […] Further, suramin was used as a positive control.

HuVECs = experiment: Tube formation of HuVECs in the presence of VEGF; assay type: cell-based, human; conditions: 30 μM, not showing cytotoxicity
Experimental: In turn, whether NYG-1 can suppress angiogenesis ability of HuVECs was tested.

Row | SMILES | IC50 [1] [µM] | effect on tube formation (in words) ([2]; 30 μM) | effect on tube formation (in words) ([2]; 30 and 15 μM) | IC50 ([2]; Homo sapiens, HUVEC) [µM] | % Inhibition of total tube length (mean ± SEM) ([2]; suramin concentration 1 (head prints μg/mL)) [%] | % Inhibition of total tube length (mean ± SEM) ([2]; suramin concentration 3 (head prints μg/mL)) [%] | % Inhibition of total tube length (mean ± SEM) ([2]; suramin concentration 10 (head prints μg/mL)) [%] | % Inhibition of total tube length (mean ± SEM) ([2]; suramin concentration 15 (head prints μg/mL)) | % Inhibition of total tube length (mean ± SEM) ([2]; suramin concentration 30 (head prints μg/mL)) | MIC (minimum inhibitory concentration) ([2]; tube formation) [µM] | cytotoxicity on HuVEC cells (HuVEC cells) | blood vessel formation (in words) (HuVECs)
1 | Cc1cc(C)c(/C=C2\C(=O)Nc3ccccc32)[nH]1 [SU5416] | 0.12 |  |  |  |  |  |  |  |  |  |  | 
2 | Cc1ccc(C(=O)Nc2ccc(S(=O)(=O)O)c3cc(S(=O)(=O)O)cc(S(=O)(=O)O)c23)cc1NC(=O)c1cccc(NC(=O)Nc2cccc(C(=O)Nc3cc(C(=O)Nc4ccc(S(=O)(=O)O)c5cc(S(=O)(=O)O)cc(S(=O)(=O)O)c45)ccc3C)c2)c1 [Suramin] |  | almost no tube formation; also recorded: completely inhibited | significant inhibition | 16 | 3 ± 4 | 4 ± 5 | 8 ± 1 | 42 ± 9^ab % | 100 ± 0^a % | 15 (≈ 19.5 µg/mL) | strong cytotoxicity | can suppress blood vessel formation
